This note sets out measurements from patent US12492188B2, “1H-benzo[D]imidazole derivatives as TLR9 inhibitors for the treatment of fibrosis” (BRISTOL-MYERS SQUIBB COMPANY, priority 2020, dated 2025).

Where two headings read alike, the source gives them in different places.

Format in all cases: cell-based
In one experiment the target is T1, human TLR7 (Homo sapiens, UniProt Q9NYK1).
T1 construct: host or cells: HEK-Blue cells (HEK293-derived reporter line)
T1 sequence (Q9NYK1 27-1049): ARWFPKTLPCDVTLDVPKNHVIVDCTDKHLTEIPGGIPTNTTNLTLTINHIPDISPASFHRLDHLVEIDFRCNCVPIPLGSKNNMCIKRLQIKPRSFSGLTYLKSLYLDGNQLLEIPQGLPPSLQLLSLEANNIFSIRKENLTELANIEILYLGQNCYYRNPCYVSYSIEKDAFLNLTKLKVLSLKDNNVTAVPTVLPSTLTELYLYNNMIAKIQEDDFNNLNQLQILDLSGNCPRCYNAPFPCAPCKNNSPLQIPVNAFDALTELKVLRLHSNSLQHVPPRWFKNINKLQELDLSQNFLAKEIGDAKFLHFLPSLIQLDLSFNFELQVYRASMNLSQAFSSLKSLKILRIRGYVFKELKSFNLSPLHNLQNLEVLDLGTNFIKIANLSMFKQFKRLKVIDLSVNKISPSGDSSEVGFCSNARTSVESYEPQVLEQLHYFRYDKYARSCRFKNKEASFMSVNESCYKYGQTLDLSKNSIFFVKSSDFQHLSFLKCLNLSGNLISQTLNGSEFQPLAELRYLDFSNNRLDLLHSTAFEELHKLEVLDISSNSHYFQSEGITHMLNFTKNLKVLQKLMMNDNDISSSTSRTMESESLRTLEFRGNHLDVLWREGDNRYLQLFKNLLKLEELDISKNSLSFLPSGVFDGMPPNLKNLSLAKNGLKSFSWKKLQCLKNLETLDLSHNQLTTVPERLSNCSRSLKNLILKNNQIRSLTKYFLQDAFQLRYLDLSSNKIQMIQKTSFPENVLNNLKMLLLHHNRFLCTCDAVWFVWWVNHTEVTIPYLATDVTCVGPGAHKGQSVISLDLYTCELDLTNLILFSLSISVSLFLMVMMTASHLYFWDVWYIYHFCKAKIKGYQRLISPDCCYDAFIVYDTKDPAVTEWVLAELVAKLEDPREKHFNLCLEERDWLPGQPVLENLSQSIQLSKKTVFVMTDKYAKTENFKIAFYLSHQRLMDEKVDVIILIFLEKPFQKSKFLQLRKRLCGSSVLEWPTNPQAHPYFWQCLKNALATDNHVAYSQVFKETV
Put plainly: TLR7 inhibition reporter assay (HEK-Blue cells, secreted embryonic alkaline phosphatase reporter). The note with it: HEK-Blue cells overexpressing human TLR7, stimulated with gardiquimod 7.5 μM; read-out: TLR 7 IC50. Summed up:
(§1)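 Steps: seed receptor-specific HEK-Blue cells; add compound, 0.05 nM–50 μM; wait 30 min at room temperature; add final gardiquimod 7.5 μM, R848 15.9 μM or ODN2006 5 nM for TLR7, TLR8 or TLR9; incubate 22 h at 37 °C; detect NF-κB/AP-1-driven SEAP.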

For the next experiment, the target named is T2, human TLR9 (Homo sapiens, UniProt Q9NR96).
T2 construct: host or cells: HEK-Blue cells (HEK293-derived reporter line)
T2 sequence (Q9NR96 26-1032): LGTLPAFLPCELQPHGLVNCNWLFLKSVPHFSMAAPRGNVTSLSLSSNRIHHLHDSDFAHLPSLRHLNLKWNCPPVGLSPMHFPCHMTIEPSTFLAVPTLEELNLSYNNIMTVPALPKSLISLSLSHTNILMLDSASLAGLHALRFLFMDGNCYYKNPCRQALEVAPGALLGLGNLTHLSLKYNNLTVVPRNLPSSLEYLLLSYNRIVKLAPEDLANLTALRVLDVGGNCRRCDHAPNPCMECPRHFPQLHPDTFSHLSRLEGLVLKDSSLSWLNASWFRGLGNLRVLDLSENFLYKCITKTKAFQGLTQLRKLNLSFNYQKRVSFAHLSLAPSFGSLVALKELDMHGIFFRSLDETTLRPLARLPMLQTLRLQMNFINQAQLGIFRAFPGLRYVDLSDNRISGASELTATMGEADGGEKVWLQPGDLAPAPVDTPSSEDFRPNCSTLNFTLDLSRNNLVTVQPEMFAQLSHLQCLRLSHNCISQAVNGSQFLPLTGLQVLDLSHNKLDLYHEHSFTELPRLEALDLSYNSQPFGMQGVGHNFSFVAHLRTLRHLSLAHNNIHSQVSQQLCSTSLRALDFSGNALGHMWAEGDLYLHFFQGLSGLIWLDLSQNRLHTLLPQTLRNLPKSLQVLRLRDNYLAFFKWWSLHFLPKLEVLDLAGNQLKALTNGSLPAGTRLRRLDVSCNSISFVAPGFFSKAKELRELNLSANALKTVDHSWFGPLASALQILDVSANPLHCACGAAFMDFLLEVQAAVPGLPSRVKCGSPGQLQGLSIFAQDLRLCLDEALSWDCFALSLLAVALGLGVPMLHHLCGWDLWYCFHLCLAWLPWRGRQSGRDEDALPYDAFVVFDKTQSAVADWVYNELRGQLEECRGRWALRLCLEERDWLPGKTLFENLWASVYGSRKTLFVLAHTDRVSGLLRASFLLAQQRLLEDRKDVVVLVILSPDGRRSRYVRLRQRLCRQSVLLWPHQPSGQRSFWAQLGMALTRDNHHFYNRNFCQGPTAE
Put plainly: TLR9 inhibition reporter assay (HEK-Blue cells, secreted embryonic alkaline phosphatase reporter). In outline: as §1

The next experiment has as its target T3, human TLR8 (Homo sapiens, UniProt Q9NR97).
T3 construct: host or cells: HEK-Blue cells (HEK293-derived reporter line)
T3 sequence (Q9NR97 27-1041): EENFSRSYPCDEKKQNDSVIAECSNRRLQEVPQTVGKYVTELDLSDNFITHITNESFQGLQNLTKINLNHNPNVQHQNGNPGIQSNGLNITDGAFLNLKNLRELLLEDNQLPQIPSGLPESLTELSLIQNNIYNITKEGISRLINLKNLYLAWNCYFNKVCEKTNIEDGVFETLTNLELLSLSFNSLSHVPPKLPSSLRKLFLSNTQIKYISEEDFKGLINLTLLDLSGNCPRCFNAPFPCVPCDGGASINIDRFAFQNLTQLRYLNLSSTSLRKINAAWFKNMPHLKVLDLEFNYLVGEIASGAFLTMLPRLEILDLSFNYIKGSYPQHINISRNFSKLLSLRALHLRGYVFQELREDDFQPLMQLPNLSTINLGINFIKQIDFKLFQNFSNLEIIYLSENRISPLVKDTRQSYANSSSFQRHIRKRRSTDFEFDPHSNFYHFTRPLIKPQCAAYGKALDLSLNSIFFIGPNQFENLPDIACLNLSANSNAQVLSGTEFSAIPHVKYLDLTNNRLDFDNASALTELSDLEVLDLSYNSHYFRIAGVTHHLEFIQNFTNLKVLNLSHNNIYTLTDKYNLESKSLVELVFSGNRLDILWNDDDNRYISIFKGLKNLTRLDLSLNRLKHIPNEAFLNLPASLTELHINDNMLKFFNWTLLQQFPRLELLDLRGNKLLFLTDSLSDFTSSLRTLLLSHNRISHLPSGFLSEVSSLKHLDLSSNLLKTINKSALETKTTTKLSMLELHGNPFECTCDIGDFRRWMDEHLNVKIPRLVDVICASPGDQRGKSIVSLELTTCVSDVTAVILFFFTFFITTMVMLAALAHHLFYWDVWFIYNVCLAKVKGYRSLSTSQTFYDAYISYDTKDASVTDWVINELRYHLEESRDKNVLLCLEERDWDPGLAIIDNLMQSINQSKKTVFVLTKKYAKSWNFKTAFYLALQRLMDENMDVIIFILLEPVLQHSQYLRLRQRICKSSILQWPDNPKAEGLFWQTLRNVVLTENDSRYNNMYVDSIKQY
Put plainly: TLR8 inhibition reporter assay (HEK-Blue cells, secreted embryonic alkaline phosphatase reporter). The note with it: HEK-Blue cells overexpressing human TLR8, stimulated with R848 15.9 μM; read-out: TLR 8 IC50. Summed up:
as §1

Setting [1] is: HEK-Blue cells overexpressing human TLR9, stimulated with ODN2006 5 nM, read-out: TLR 9 IC50.
Setting [2] is: HEK-Blue human TLR9 reporter cells.

A word on the IC50: it is the concentration that gives 50% inhibition. With `Cn1c(-c2ccc(S(C)(=O)=O)cc2)nc2cc(C3CCN(C4CC5CCC(C4)N5C4CCOCC4)CC3)c(F)cc21` (single isomer, unassigned) [Example 256, 6-fluoro-1-methyl-2-(4-(methylsulfonyl)phenyl)-5-(1-(8-(tetrahydro-2H-pyran-4-yl)-8-azabicyclo[3.2.1]octan-3-yl)piperidin-4-yl)-1H-benzo[d]imidazole], the IC50 is 17.6 µM at human TLR7, 320 nM against human TLR9, 315 nM at human TLR9 (setting [1]) and over 50 µM on human TLR8.
Taken in the same sequence, the figures for `CC(C)CN1C2CCC1CC(N1CCC(c3ccc4nc(-c5ccc(S(C)(=O)=O)cc5)n(C)c4c3F)CC1)C2` (single isomer, unassigned) [Example 266, 7-fluoro-6-(1-(8-isobutyl-8-azabicyclo[3.2.1]octan-3-yl)piperidin-4-yl)-1-methyl-2-(4-(methylsulfonyl)phenyl)-1H-benzo[d]imidazole] were 18.6 µM, 97 nM, 97 nM and over 50 µM.
With `CC(C)CN1C2CCC1CC(N1CCC(c3ccc4nc(-c5ccc(S(C)(=O)=O)cc5)n(C)c4c3F)CC1)C2` (single isomer, unassigned) [Example 267, 7-fluoro-6-(1-(8-isobutyl-8-azabicyclo[3.2.1]octan-3-yl)piperidin-4-yl)-1-methyl-2-(4-(methylsulfonyl)phenyl)-1H-benzo[d]imidazole], the IC50 on human TLR7 is over 50 µM; at human TLR9, 350 nM; at human TLR9 (setting [1]), 347 nM; on human TLR8, over 50 µM.
Turning to `Cn1c(-c2ccc(S(C)(=O)=O)cc2)nc2ccc(C3CCN(C4CC5CCC(C4)N5C4CCC4)CC3)c(F)c21` (single isomer, unassigned) [Example 270, 6-(1-(8-cyclobutyl-8-azabicyclo[3.2.1]octan-3-yl)piperidin-4-yl)-7-fluoro-1-methyl-2-(4-(methylsulfonyl)phenyl)-1H-benzo[d]imidazole], the IC50 at human TLR7 is 17.7 µM; on human TLR9 it was 65 nM; on human TLR9 (setting [1]), 65 nM; on human TLR8, over 50 µM.
Take `Cn1c(-c2ccc(S(C)(=O)=O)cc2)nc2ccc(C3CCN(C4CC5CCC(C4)N5C4CCC4)CC3)c(F)c21` (single isomer, unassigned) [Example 271, 6-(1-(8-cyclobutyl-8-azabicyclo[3.2.1]octan-3-yl)piperidin-4-yl)-7-fluoro-1-methyl-2-(4-(methylsulfonyl)phenyl)-1H-benzo[d]imidazole]: the IC50 is 31.6 µM at human TLR7, 410 nM against human TLR9, 407 nM at human TLR9 (setting [1]) and over 50 µM on human TLR8.
For `COCCN1C2CCC1CC(N1CCC(c3ccc4nc(-c5ccc(S(C)(=O)=O)cc5)n(C)c4c3F)CC1)C2` (single isomer, unassigned) [Example 276, 7-fluoro-6-(1-(8-(2-methoxyethyl)-8-azabicyclo[3.2.1]octan-3-yl)piperidin-4-yl)-1-methyl-2-(4-(methylsulfonyl)phenyl)-1H-benzo[d]imidazole], the IC50 on human TLR7 was 1.5 µM; on human TLR9, 170 nM; at human TLR9 (setting [1]), 167 nM; at human TLR8, over 50 µM.
In the case of `COCCN1C2CCC1CC(N1CCC(c3ccc4nc(-c5ccc(S(C)(=O)=O)cc5)n(C)c4c3F)CC1)C2` (single isomer, unassigned) [Example 277, 7-fluoro-6-(1-(8-(2-methoxyethyl)-8-azabicyclo[3.2.1]octan-3-yl)piperidin-4-yl)-1-methyl-2-(4-(methylsulfonyl)phenyl)-1H-benzo[d]imidazole], the IC50 at human TLR7 amounted to 1 µM; against human TLR9 it was 270 nM; on human TLR9 (setting [1]), 269 nM; on human TLR8, 16.3 µM.
As for `Cn1c(-c2ccc(S(C)(=O)=O)cc2)nc2c(F)cc(C3CCN(C4CC5CCC(C4)N5CC4CC4)CC3)cc21` (single isomer, unassigned) [Example 282, 6-(1-(8-(cyclopropylmethyl)-8-azabicyclo[3.2.1]octan-3-yl)piperidin-4-yl)-4-fluoro-1-methyl-2-(4-(methylsulfonyl)phenyl)-1H-benzo[d]imidazole], the IC50 at human TLR7 is 7.1 µM; on human TLR9 (setting [1]), 108 nM; against human TLR9 (setting [2]), 110 nM; at human TLR8, over 50 µM.
On to `Cn1c(-c2ccc(S(C)(=O)=O)cc2)nc2c(F)cc(C3CCN(C4CC5CCC(C4)N5CC4CC4)CC3)cc21` (single isomer, unassigned) [Example 283, 6-(1-(8-(cyclopropylmethyl)-8-azabicyclo[3.2.1]octan-3-yl)piperidin-4-yl)-4-fluoro-1-methyl-2-(4-(methylsulfonyl)phenyl)-1H-benzo[d]imidazole], for which the IC50 is 4.7 µM on human TLR7, 16 nM at human TLR9 (setting [1]), 16 nM against human TLR9 (setting [2]) and over 50 µM at human TLR8.
